Source: US20250302343A1, “AN ELECTRODE ARRAY FOR MEASURING THE PH OF ANIMAL TISSUES, A PROBE […] AN ARRAY, AND AN ASSEMBLY COMPRISING SAID PROBE” (QUANTUM I[…]. Z O.O., priority 2022, published 2025)
“Also recorded” adds a separate entry of the source.

Conditions: electrodes comprising the ionic liquid in the reference electrode membrane; ISO 10993-5:2009 (E) and ISO 10993-12:2021 (E)
Protocol: An evaluation of the acute cytotoxicity of the reference electrode components was performed.
Cytotoxicity-based biocompatibility tests were performed according to the procedures of ISO 10993-5:2009 (E) and ISO 10993-12:2021 (E) standards.

| Molecule | acute cytotoxicity |
| --- | --- |
| 1-ethyl-3-methylimidazolium bis(trifluoromethyl sulfonyl)imide | no significant toxicity; also recorded: lowest cytotoxicity |
| CC(=O)[O-].CCCCn1cc[n+](C)c1 [1-butyl-3-methylimidazolium acetate] | no significant toxicity |
| CCCCn1cc[n+](C)c1.[Cl-] [1-butyl-3-methylimidazolium chloride] | no significant toxicity |
| CCCCn1cc[n+](C)c1.F[P-](F)(F)(F)(F)F [1-butyl-3-methylimidazolium hexafluorophosphate] | no significant toxicity |
| choline acetate | no significant toxicity |
| choline phosphate | no significant toxicity |
